Laboratory results reported in PMC9343080, “Distribution- and Metabolism-Based Drug Discovery: A Potassium-Competitive Acid Blocker as a Proof of Concept” (Research, 2022).
Read-outs that look alike come from different tables or passages of the source.

Assays:
Na+, K+-ATPase = assay: In vitro Na+, K+-ATPase activity; format: biochemical
[1] = tested on: histamine-stimulated gastric acid secretion; assay: In vivo inhibition of histamine-stimulated acid secretion in anesthetized rats; set-up: species or system rat; settings: for Total acid output, histamine-stimulated model / Inhibition (%), histamine-stimulated model: rats
Method: 60 SPF SD rats weighing 180-220 g were randomly divided into […]: sham, model, SH-337 (2 mg/kg and 4 mg/kg), vonoprazan (2 mg/kg), males and females are equally divided. Fasting for 24 hours, model and sham groups were treated with deionized water. Drugs and vehicle were given through intragastric administration to rats before anesthesia. 1 h after administration, pylorus was ligated. 5 min later, histamine 2HCl (30 mg/10 mL/kg) was injected subcutaneously. At 3 h after histamine administration, the rats were killed by CO2 asphyxiation. The gastric contents were collected in a 10 mL centrifuge tube after removing their stomachs. Centrifuge at 3000 g for 10 min, and then, determine the total acid output during a 3 h period by 0.1 M NaOH [52, 53]. %Inhibition = (average of modelacid–drugacid)/average of modelacid × 100%.

[2] = molecular target: T1, rabbit gastric H+, K+-ATPase (Oryctolagus cuniculus, UniProt P27112); assay: In vitro enzymatic activity assay (inorganic phosphate from ATP hydrolysis); format: biochemical
T1 construct: using rabbit gastric H^+, K^+-ATPase; from tissue; host or cells: rabbit stomach (gastric preparation; the method of preparation is not described)
Method: The in vitro enzymatic activity was calculated by measuring the inorganic phosphate produced by the hydrolysis of ATP using rabbit gastric H^+, K^+-ATPase. 0.25 μg enzyme was preincubated at 37°C for 30 min in Tris-HCl buffer (2.0 mL, 50 mM, pH 6.5) containing 5 mM MgCl2, 10 μM valinomycin, 0 or 20 mM KCl, and different concentrations of SH-337 and vonoprazan. The reaction was initiated by adding 5 μL of 5 mM ATP 2Na, and the preparation was incubated for 30 min at 37°C and halted by the addition of 100 μL of malachite green reagent (0.12% malachite green, 7.5% ammonium molybdate, and 11% tween 20 were mixed in a volume ratio of 100 : 25 : 2). H^+, K^+-ATPase activity was calculated after subtracting the enzyme activity in the absence of KCl.

[3] = Tissue distribution of SH-337 in rats (LC-MS/MS); format: in vivo, rat; settings: for concentration at 15 min / concentration at 1 h / concentration at 2 h / concentration at 4 h / concentration at 24 h: po, 4 mg/kg
Method: 15 SPF male SD rats were randomly divided into 5 groups, three per group. Fasting was for 4 hours. Plasma, heart, liver, and stomach were obtained 0.25, 1, 2, 4, and 24 hours after oral administration of SH-337 (0.4 mg/mL in water) at a dose of 4 mg/kg. At designated time points, rats were anesthetized with ether, and the blood samples were collected via the abdominal aorta. The blood was immediately cooled under ice-chilled conditions and centrifuged at approximately 1500 × g at 4°C for 10 minutes to obtain the plasma. For plasma: 20 μL Std samples in duplicate, QC samples in duplicate, and rat plasma samples were mixed with 60 μL ACN containing IS (200 ng/mL of tolbutamide, 50 ng/mL of propranolol, and 500 ng/mL of Dic) in EP tubes. After the mixture was vortexed for 1 min and then centrifuged for 10 min (13000 rpm, 4°C), transfer 50 μL supernatant to a 96-well plate with 150 μL pure water, shake for 10 min, and finally analyze by LC-MS/MS. For heart and liver: tissue samples were added with 3-folds (w/v) saline in terms of the weight of samples and then homogenated. 20 μL Std samples in duplicate, QC samples in duplicate, and rat heart and liver samples were mixed with 60 μL ACN containing IS (200 ng/mL of tolbutamide, 50 ng/mL of propranolol, and 500 ng/mL of Dic) in EP tubes. After the mixture was vortexed for 1 min and then centrifuged for 10 min (13000 rpm, 4°C), transfer 50 μL supernatant to a 96-well plate with 150 μL pure water, shake for 10 min, and finally analyze by LC-MS/MS. For stomach: tissue samples were added with 3-folds (w/v) saline in terms of the weight of samples and then homogenated. 20 μL Std samples in duplicate, QC samples in duplicate, and rat stomach samples were mixed with 60 μL ACN containing IS (200 ng/mL of tolbutamide, 50 ng/mL of propranolol, and 500 ng/mL of Dic) in EP tubes. After the mixture was vortexed for 1 min and then centrifuged for 10 min (13000 rpm, 4°C), transfer 50 μL supernatant to a 96-well plate with 150 μL pure water, shake for 10 min, and finally analyze by LC-MS/MS.

[4] = Two-week repeat-dose toxicity test; format: in vivo, SD rats
Method: For acute toxicity test: 12 SPF SD rats were randomly divided into three groups and received a single dose of SH-337 (1000 mg/kg, i.g.), and the animal tolerance was recorded within 2 hours. For two-week repeat-dose toxicity test: 20 SPF SD rats were randomly divided into two groups and received SH-337 (100, 200 mg/kg, i.g.) once daily for 14 days. SH-337 was dissolved in 0.5% CMC-Na. The body weight of the rats was recorded every 7 days. During the experiment, clinical parameters included apparent changes in the mental state, skin or fur, behavior, genitals, mucous membranes, respiration, stool consistency, glandular organ secretions, mortality, or other toxic results that were recorded. In addition, animal bodyweight and food intake were assessed once weekly over the study period. At the end of the experiment, the rats were sacrificed, and the serum hematological parameters and serum biochemistry parameters were recorded.

[5] = rats, single oral 4 mg/kg SH-337
[6] = stomach-liver distribution ratio, rats, oral 4 mg/kg

T1 sequence (P27112 whole entry): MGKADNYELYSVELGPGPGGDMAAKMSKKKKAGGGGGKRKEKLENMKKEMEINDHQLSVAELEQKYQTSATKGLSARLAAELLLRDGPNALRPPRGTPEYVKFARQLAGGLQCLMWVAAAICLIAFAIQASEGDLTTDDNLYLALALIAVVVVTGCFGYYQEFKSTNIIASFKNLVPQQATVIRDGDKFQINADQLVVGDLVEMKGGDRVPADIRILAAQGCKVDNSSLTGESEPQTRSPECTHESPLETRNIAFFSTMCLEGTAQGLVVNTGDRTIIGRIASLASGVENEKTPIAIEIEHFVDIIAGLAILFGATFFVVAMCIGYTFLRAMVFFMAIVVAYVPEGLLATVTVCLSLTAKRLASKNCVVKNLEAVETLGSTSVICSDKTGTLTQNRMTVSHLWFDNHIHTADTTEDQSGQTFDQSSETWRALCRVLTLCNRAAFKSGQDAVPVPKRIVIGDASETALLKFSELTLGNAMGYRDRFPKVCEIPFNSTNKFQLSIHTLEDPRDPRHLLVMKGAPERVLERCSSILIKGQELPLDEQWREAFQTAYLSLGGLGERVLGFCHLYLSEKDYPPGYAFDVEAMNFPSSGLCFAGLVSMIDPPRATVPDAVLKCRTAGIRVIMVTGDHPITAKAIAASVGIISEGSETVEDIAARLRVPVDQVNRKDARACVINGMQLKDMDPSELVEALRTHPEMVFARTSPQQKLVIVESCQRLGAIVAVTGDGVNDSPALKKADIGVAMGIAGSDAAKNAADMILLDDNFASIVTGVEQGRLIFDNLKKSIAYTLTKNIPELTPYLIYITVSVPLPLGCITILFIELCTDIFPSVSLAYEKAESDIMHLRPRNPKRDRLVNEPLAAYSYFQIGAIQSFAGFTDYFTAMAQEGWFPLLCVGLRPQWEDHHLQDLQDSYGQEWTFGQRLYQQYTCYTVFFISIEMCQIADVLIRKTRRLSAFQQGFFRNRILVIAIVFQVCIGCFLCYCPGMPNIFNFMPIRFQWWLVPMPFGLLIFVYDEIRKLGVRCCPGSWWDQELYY
T1 sequence (P18597 whole entry partner): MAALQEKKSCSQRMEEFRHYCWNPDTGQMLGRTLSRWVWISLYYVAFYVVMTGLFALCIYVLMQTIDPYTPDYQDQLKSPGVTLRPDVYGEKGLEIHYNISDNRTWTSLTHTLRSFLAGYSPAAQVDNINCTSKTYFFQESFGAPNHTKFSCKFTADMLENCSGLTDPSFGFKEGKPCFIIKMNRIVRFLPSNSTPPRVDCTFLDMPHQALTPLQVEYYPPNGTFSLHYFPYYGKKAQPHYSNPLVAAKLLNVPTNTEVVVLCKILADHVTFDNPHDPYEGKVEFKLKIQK

CNCc1cc(-c2ccc(OCC3CC3)cc2F)n(S(=O)(=O)c2cccnc2)c1.Cl.Cl [SH-337, 1-(5-(4-(cyclopropylmethoxy)-2-fluorophenyl)-1-(pyridin-3-ylsulfonyl)-1H-pyrrol-3-yl)-N-methylmethanamine dihydrochloride]
IC50 (Na+, K+-ATPase): 31.3 µM | Fold selectivity (Na+, K+-ATPase; Na+, K+-ATPase over H+, K+-ATPase): 925.6 fold | In vivo efficacy (% inhibition) ([1]; histamine-induced acid secretion in rats, 2 mg/kg, i.g. (Table 2)): 83% | Total acid output, histamine-stimulated model ([1]; i.g. 2 mg/kg): 0.31 ± 0.39^∗∗ 10^−4 mol | Inhibition (%), histamine-stimulated model ([1]; i.g. 2 mg/kg (Table 6)): 80% | Inhibition (%), histamine-stimulated model ([1]; i.g. 4 mg/kg): 93% | Total acid output, histamine-stimulated model ([1]; i.g. 4 mg/kg): 0.14 ± 0.48^∗∗ 10^−4 mol | IC50 [2]: 0.0338 µM | fold greater enzyme inhibitory activity than vonoprazan ([2]; H+, K+-ATPase IC50, SH-337 vs. vonoprazan): 2.0 fold | C Stomach/CLiver (stomach-liver distribution ratio) ([3]; AUC, rats, i.g. 4 mg/kg SH-337): 7.1 | concentration at 15 min ([3]; male, SD, rat, liver, rats, single oral 4 mg/kg SH-337, read-out: Concentration, Liver, 15 min): 5240 ng/mL | concentration at 1 h ([3]; male, SD, rat, liver, rats, single oral 4 mg/kg SH-337, read-out: Concentration, Liver, 1 h): 846 ng/mL | concentration at 2 h ([3]; male, SD, rat, liver, rats, single oral 4 mg/kg SH-337, read-out: Concentration, Liver, 2 h): 262 ng/mL | concentration at 4 h ([3]; male, SD, rat, liver, rats, single oral 4 mg/kg SH-337, read-out: Concentration, Liver, 4 h): 145 ng/mL | concentration at 24 h ([3]; male, SD, rat, liver, rats, single oral 4 mg/kg SH-337, read-out: Concentration, Liver, 24 h): 1.3 ng/mL | concentration at 1 h ([3]; male, SD, rat, plasma, rats, 1 h after oral administration of 4.0 mg/kg (Table 2), read-out: Drug concentration, Plasma): 7.1 ng/mL | concentration at 15 min ([3]; male, SD, rat, plasma, rats, single oral 4 mg/kg SH-337, read-out: Concentration, Plasma, 15 min): 9.4 ng/mL | concentration at 1 h ([3]; male, SD, rat, plasma, rats, single oral 4 mg/kg SH-337, read-out: Concentration, Plasma, 1 h): 15.5 ng/mL | concentration at 2 h ([3]; male, SD, rat, plasma, rats, single oral 4 mg/kg SH-337, read-out: Concentration, Plasma, 2 h): 5.1 ng/mL | concentration at 4 h ([3]; male, SD, rat, plasma, rats, single oral 4 mg/kg SH-337, read-out: Concentration, Plasma, 4 h): 6.7 ng/mL | AUC(0-t) ([3]; male, SD, rat, plasma, rats, single oral 4 mg/kg SH-337, read-out: AUC-last, Plasma): 32.6 ng·h/mL | Kp ([3]; male, SD, rat, stomach / plasma, oral, AUC, rats, i.g. 4 mg/kg SH-337, read-out: C Stomach/CPlasma (stomach-plasma distribution ratio)): 1360 | concentration at 1 h ([3]; male, SD, rat, stomach, rats, 1 h after oral administration of 4.0 mg/kg (Table 2), read-out: Drug concentration, Stomach): 6690 ng/mL | concentration at 15 min ([3]; male, SD, rat, stomach, rats, single oral 4 mg/kg SH-337, read-out: Concentration, Stomach, 15 min): 9820 ng/mL | concentration at 1 h ([3]; male, SD, rat, stomach, rats, single oral 4 mg/kg SH-337, read-out: Concentration, Stomach, 1 h): 3340 ng/mL | concentration at 2 h ([3]; male, SD, rat, stomach, rats, single oral 4 mg/kg SH-337, read-out: Concentration, Stomach, 2 h): 3030 ng/mL | concentration at 4 h ([3]; male, SD, rat, stomach, rats, single oral 4 mg/kg SH-337, read-out: Concentration, Stomach, 4 h): 2810 ng/mL | concentration at 24 h ([3]; male, SD, rat, stomach, rats, single oral 4 mg/kg SH-337, read-out: Concentration, Stomach, 24 h): 136 ng/mL | Kp at 1 h ([3]; male, SD, rat, ratio of stomach to plasma distribution 1 h after oral administration of 4.0 mg/kg, read-out: C Stomach/CPlasma): 943 | AUC0–24, Liver ([3]; rats, i.g. 4 mg/kg SH-337): 6155.6 ng equiv. h/mL or g | AUC0–24, Plasma ([3]; rats, i.g. 4 mg/kg SH-337): 32.6 ng equiv. h/mL or g | AUC0–24, Stomach ([3]; rats, i.g. 4 mg/kg SH-337): 44240.4 ng equiv. h/mL or g | retention in the stomach ([3]; rats, oral 4 mg/kg): more than 24 h | AUC-last, Liver [3, 5]: 6155.6 ng·h/g | AUC-last, Stomach [3, 5]: 44240.4 ng·h/g | Concentration, Plasma, 24 h ([3]; rats, single oral 4 mg/kg SH-337, BLQ: below limit of quantification): BLQ | CStomach/CLiver, 15 min [3, 6]: 1.9 | CStomach/CLiver, 1 h [3, 6]: 3.95 | CStomach/CLiver, 2 h [3, 6]: 11.6 | CStomach/CLiver, 4 h [3, 6]: 19.4 | CStomach/CLiver, 24 h [3, 6]: 104.9 | NOAEL, fold higher than vonoprazan ([4]; 100 mg/kg vs. 30 mg/kg): 3.3 fold | NOAEL at 14 days ([4]; SD, rat, in vivo, po, no observed adverse effect level (NOAEL)): ≥ 100 mg/kg | repeated-dose toxicity findings ([4]; rats, daily oral 100 mg/kg for 2 weeks): no evidence of SH-337 toxicity was observed
